Measurements published in patent publication US20090181963A1, “3H-[1,2,3]TRIAZOLO[4,5-D]PYRIMIDINE COMPOUNDS, THEIR USE AS mTOR KINASE AND PI3 KINASE INHIBITORS, AND THEIR [sequence]” (Wyeth, priority 2008, published 2009).

Columns and labels:
PI3 Kinase γ = PI3 Kinase γ (Homo sapiens, UniProt P48736); test: Fluorescence polarization assay for PI3K (PI3 Kinase γ); assay type: biochemical; settings: diC8-PI(4,5)P2 substrate, 25 μM ATP, one hour at 25° C.
Method: Nunc 384 well black polypropylene fluorescent plates were used for PI3K assays. Reactions were quenched by the addition of EDTA to a final concentration of 10 μM. Final reaction volumes were 10 ml. […] Reactions were allowed to proceed for one hour at 25° C. After I hour, GST-tagged GRP1 (general receptor for phosphoinositides) PH domain fusion protein was added to a final concentration of 100 nM, and BODIPY-TMRI(1,3,4,5)P4 (Echelon) was also added to a final concentration of 5 nM. Final sample volumes were 25 μl with a final DMSO concentration of 0.8%. Assay Plates were read on PerkinElmer Envision plate readers with appropriate filters for Tamra [BODIPY-TMRI(1,3,4,5)P4]. Data obtained were used to calculate enzymatic activity and enzyme inhibition by inhibitor compounds.

PI3 Kinase α = PI3 Kinase α (Homo sapiens, UniProt P42336); test: Fluorescence polarization assay for PI3K (PI3 Kinase α); assay type: biochemical; settings: diC8-PI(4,5)P2 substrate, 25 μM ATP, one hour at 25° C.
Sequence of PI3 Kinase α (P42336 whole entry): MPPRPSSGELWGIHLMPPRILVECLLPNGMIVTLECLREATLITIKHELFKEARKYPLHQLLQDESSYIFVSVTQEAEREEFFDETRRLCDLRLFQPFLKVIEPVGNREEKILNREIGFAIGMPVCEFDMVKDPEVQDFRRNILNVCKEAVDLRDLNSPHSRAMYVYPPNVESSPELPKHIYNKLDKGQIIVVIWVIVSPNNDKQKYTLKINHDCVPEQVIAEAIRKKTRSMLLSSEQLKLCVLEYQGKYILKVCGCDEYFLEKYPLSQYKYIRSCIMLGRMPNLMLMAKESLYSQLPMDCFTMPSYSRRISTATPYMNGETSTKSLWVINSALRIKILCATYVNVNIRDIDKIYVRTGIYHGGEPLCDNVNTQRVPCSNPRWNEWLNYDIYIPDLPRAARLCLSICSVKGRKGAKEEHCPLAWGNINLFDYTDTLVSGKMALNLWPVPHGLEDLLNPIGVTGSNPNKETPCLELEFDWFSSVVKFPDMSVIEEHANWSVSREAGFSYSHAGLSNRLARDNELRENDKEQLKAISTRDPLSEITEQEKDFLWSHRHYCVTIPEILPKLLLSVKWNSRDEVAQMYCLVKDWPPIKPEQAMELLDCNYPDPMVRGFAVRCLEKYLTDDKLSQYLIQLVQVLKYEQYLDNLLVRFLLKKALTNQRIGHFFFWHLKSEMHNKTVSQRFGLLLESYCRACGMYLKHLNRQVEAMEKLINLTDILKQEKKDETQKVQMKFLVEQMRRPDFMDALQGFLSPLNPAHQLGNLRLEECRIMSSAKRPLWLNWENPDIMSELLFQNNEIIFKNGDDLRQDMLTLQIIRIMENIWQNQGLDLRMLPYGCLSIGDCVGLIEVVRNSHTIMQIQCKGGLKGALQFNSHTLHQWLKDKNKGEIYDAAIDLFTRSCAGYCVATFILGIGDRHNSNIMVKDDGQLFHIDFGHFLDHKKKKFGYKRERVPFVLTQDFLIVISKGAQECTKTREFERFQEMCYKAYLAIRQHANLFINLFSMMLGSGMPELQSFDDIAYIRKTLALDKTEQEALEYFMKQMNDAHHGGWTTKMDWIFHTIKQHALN
Sequence of PI3 Kinase α (P27986 whole entry partner): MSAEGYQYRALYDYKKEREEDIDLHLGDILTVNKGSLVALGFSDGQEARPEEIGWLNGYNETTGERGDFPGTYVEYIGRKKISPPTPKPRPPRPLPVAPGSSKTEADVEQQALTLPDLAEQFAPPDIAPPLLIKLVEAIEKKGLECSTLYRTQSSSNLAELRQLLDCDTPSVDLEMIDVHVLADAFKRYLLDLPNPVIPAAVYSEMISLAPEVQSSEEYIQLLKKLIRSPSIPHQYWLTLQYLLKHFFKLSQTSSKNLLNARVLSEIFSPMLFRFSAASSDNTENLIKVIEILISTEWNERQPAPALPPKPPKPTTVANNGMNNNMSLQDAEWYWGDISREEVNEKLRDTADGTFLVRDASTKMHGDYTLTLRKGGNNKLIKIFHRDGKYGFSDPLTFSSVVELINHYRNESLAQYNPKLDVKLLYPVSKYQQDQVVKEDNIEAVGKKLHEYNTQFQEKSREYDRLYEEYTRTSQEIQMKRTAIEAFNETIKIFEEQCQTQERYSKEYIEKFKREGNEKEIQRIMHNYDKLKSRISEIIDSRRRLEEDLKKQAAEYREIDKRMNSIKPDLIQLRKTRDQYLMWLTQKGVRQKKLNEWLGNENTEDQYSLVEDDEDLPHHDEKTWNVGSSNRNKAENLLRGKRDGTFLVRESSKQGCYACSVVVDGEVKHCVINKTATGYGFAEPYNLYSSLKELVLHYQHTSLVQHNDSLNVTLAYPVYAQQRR

Sequence of PI3 Kinase γ (P48736 whole entry): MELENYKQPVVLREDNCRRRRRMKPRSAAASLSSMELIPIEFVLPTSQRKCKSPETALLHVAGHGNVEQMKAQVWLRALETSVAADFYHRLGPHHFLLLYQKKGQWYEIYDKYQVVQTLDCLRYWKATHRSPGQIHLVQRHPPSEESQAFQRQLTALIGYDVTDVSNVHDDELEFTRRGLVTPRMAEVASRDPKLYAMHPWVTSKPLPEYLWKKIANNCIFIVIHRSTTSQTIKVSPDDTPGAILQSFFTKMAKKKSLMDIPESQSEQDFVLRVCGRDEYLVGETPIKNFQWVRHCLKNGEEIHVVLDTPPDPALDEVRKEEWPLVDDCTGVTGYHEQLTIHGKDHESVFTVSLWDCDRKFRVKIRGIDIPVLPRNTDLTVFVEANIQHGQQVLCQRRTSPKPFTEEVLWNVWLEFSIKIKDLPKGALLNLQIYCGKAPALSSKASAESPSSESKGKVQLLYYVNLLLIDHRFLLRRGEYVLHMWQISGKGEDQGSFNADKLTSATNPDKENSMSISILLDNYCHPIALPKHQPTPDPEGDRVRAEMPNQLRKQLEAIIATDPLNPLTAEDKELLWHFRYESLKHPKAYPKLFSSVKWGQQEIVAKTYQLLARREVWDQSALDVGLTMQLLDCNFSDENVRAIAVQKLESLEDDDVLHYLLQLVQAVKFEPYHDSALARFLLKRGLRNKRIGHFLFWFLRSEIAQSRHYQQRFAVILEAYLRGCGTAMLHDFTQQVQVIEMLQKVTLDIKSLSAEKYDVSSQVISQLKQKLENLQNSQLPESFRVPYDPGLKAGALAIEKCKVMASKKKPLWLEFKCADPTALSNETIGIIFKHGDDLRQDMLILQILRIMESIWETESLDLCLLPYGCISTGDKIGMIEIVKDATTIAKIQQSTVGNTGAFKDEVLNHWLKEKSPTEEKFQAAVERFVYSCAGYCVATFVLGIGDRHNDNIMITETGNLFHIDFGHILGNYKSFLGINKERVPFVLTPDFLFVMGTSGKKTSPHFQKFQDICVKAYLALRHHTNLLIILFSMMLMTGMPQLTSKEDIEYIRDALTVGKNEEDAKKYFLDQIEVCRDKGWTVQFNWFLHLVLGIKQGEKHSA

IC50 (PI3 Kinase γ) [nM]	IC50 (PI3 Kinase α) [nM]	SMILES
2140	556	Oc1cccc(-c2nc(N3CCOCC3)c3nnn(CCN4CCN(C5CCCCC5)CC4)c3n2)c1 [Example 106, 3-{3-[2-(4-cyclohexylpiperazin-1-yl)ethyl]-7-morpholin-4-yl-3H-[1,2,3]triazolo[4,5-d]pyrimidin-5-yl}phenol]
91.5	9	O=C(Nc1ccncc1)Nc1ccc(-c2nc(N3CCOCC3)c3nnn(C4CCNCC4)c3n2)cc1 [Example 167, 1-[4-(7-morpholin-4-yl-3-piperidin-4-yl-3H-[1,2,3]triazolo[4,5-d]pyrimidin-5-yl)phenyl]-3-pyridin-4-ylurea]
100	34.5	Cc1ccc(NC(=O)Nc2ccc(-c3nc(N4CCOCC4)c4nnn(C(C)C)c4n3)cc2)cc1 [Example 90, 1-(4-methyl-phenyl)-3-[4-(3-isopropyl-7-morpholin-4-yl-3H-[1,2,3]triazolo[4,5-d]pyrimidin-5-yl)-phenyl]-urea]
92.5	13.5	CCn1nnc2c(N3CCOC[C@@H]3C)nc(-c3ccc(NC(=O)Nc4ccc(C#N)cc4)cc3)nc21 [Example 75, (S)-1-(4-cyanophenyl)-3-(4-(3-ethyl-7-(3-methylmorpholino)-3H-[1,2,3]triazolo[4,5-d]pyrimidin-5-yl)phenyl)urea]
435	83.5	OCc1cccc(-c2nc(N3CCOCC3)c3nnn(C4CCN(Cc5ccccc5)CC4)c3n2)c1 [Example 177, {3-[3-(1-benzylpiperidin-4-yl)-7-morpholin-4-yl-3H-[1,2,3]triazolo[4,5-d]pyrimidin-5-yl]phenyl}methanol]
91	33.7	CC(C)n1nnc2c(N3CCOCC3)nc(-c3ccc(NC(=O)Nc4cc[nH]c4)cc3)nc21 [Example 95, 1-[4-(3-isopropyl-7-morpholin-4-yl-3H-[1,2,3]triazolo[4,5-d]pyrimidin-5-yl)-phenyl]-3-(1H-pyrrol-3-yl)-urea]
2070	245	O=C(Cn1nnc2c(N3CCOCC3)nc(-c3cccc(CO)c3)nc21)Nc1ccc(F)cc1 [Example 238, N-(4-fluorophenyl)-2-{5-[3-(hydroxymethyl)phenyl]-7-morpholin-4-yl-3H-[1,2,3]triazolo[4,5-d]pyrimidin-3-yl}acetamide]
407	143	CC(C)(C)C(=O)Nc1ncccc1CN1CCC(n2nnc3c(N4CCOCC4)nc(-c4cncc(O)c4)nc32)CC1 [Example 25, N-[3-({4-[5-(5-hydroxypyridin-3-yl)-7-morpholin-4-yl-3H-[1,2,3]triazolo[4,5-d]pyrimidin-3-yl]piperidin-1-yl}methyl)pyridin-2-yl]-2,2-dimethylpropanamide]
242	57	Oc1cccc(-c2nc(N3CCOCC3)c3nnn(CCCN4CCCC4)c3n2)c1 [Example 9, 3-[7-morpholin-4-yl-3-(3-pyrrolidin-1-ylpropyl)-3H-[1,2,3]triazolo[4,5-d]pyrimidin-5-yl]phenol]
544	911	O=C(c1ccc(Cn2nnc3c(N4CCOCC4)nc(-c4cccc(O)c4)nc32)cc1)N1CCCC1 [Example 228, 3-{7-morpholin-4-yl-3-[4-(pyrrolidin-1-ylcarbonyl)benzyl]-3H-[1,2,3]triazolo[4,5-d]pyrimidin-5-yl}phenol]
173	74	CC(C)(C)OC(=O)Cn1nnc2c(N3CCOCC3)nc(-c3ccc(NC(=O)Nc4ccncc4)cc3)nc21 [Example 234, tert-butyl (7-morpholin-4-yl-5-{4-[(pyridin-4-ylcarbamoyl)amino]phenyl}-3H-[1,2,3]triazolo[4,5-d]pyrimidin-3-yl)acetate]
8000	1840	Nc1ccc(-c2nc(N3CCOCC3)c3nnn(C4CC4)c3n2)cc1 [Example 77, 4-(3-cyclopropyl-7-morpholino-3H-[1,2,3]triazolo[4,5-d]pyrimidin-5-yl)aniline]
11.3	< 2.2	CCn1nnc2c(N3CCOCC3)nc(-c3ccc(NC(=O)Nc4ccc(C(=O)N(C)CCN(C)C)cc4)cc3)nc21 [Example 45, N-[2-(dimethylamino)ethyl]-4-({[4-(3-ethyl-7-morpholin-4-yl-3H-[1,2,3]triazolo[4,5-d]pyrimidin-5-yl)phenyl]carbamoyl}amino)-N-methylbenzamide]
1360	122	CC(C)(C)OC(=O)N1CCC(NC(=O)c2ccc(Cn3nnc4c(N5CCOCC5)nc(-c5cccc(O)c5)nc43)cc2)CC1 [Example 208, tert-butyl 4-[(4-{[5-(3-hydroxyphenyl)-7-morpholin-4-yl-3H-[1,2,3]triazolo[4,5-d]pyrimidin-3-yl]methyl}benzoyl)amino]piperidine-1-carboxylate]
29	3.5	CCn1nnc2c(N3CCOCC3)nc(-c3ccc(NC(=O)Nc4ccc(C(=O)NCCN5CCOCC5)cc4)cc3)nc21 [Example 53, 4-({[4-(3-ethyl-7-morpholin-4-yl-3H-[1,2,3]triazolo[4,5-d]pyrimidin-5-yl)phenyl]carbamoyl}amino)-N-(2-morpholin-4-ylethyl)benzamide]
21.5	5	CC(C)n1nnc2c(N3CCOCC3)nc(-c3ccc(NC(=O)Nc4ccncc4)cc3)nc21 [Example 82, 1-[4-(3-isopropyl-7-morpholin-4-yl-3H-[1,2,3]triazolo[4,5-d]pyrimidin-5-yl)-phenyl]-3-pyridin-4-yl-urea]
406	81.5	Oc1cccc(-c2nc(N3CCOCC3)c3nnn(C4CCNCC4)c3n2)c1 [Example 144, 3-(7-morpholin-4-yl-3-piperidin-4-yl-3H-[1,2,3]triazolo[4,5-d]pyrimidin-5-yl)phenol]
104	11.5	CN(C)CCCOc1ccc(CN2CCC(n3nnc4c(N5CCOCC5)nc(-c5ccc(NC(=O)NCCN(C)C)cc5)nc43)CC2)cc1 [Example 162, 1-(2-(dimethylamino)ethyl)-3-(4-(3-(1-(4-(3-(dimethylamino)propoxy)benzyl)piperidin-4-yl)-7-morpholino-3H-[1,2,3]triazolo[4,5-d]pyrimidin-5-yl)phenyl)urea]
890	108	CC(C)(C)OC(=O)N1CC(n2nnc3c(N4CCOCC4)nc(-c4cccc(O)c4)nc32)C1 [Example 124, tert-butyl 3-[5-(3-hydroxyphenyl)-7-morpholin-4-yl-3H-[1,2,3]triazolo[4,5-d]pyrimidin-3-yl]azetidine-1-carboxylate]
161	61	Oc1cncc(-c2nc(N3CCOCC3)c3nnn(C4CCN(Cc5cncc(Br)c5)CC4)c3n2)c1 [Example 16, 5-(3-{1-[(5-bromopyridin-3-yl)methyl]piperidin-4-yl}-7-morpholin-4-yl-3H-[1,2,3]triazolo[4,5-d]pyrimidin-5-yl)pyridin-3-ol]
25.5	2	O=C(Nc1ccncc1)Nc1ccc(-c2nc(N3CCOCC3)c3nnn(CC(F)(F)F)c3n2)cc1 [Example 134, 1-{4-[7-morpholin-4-yl-3-(2,2,2-trifluoroethyl)-3H-[1,2,3]triazolo[4,5-d]pyrimidin-5-yl]phenyl}-3-pyridin-4-ylurea]
240	66	Cc1ccc(CN2CCC(n3nnc4c(N5CCOCC5)nc(-c5cncc(O)c5)nc43)CC2)s1 [Example 21, 5-(3-{1-[(5-methyl-2-thienyl)methyl]piperidin-4-yl}-7-morpholin-4-yl-3H-[1,2,3]triazolo[4,5-d]pyrimidin-5-yl)pyridin-3-ol]
1400	420	CC(C)(C)NC(=O)c1ccc(Cn2nnc3c(N4CCOCC4)nc(-c4cccc(O)c4)nc32)cc1 [Example 222, N-tert-butyl-4-{[5-(3-hydroxyphenyl)-7-morpholin-4-yl-3H-[1,2,3]triazolo[4,5-d]pyrimidin-3-yl]methyl}benzamide]
28	8	O=C(Nc1ccccc1)Nc1ccc(-c2nc(N3CCOCC3)c3nnn(CC4CNC4)c3n2)cc1 [Example 189, 1-{4-[3-(azetidin-3-ylmethyl)-7-morpholin-4-yl-3H-[1,2,3]triazolo[4,5-d]pyrimidin-5-yl]phenyl}-3-phenylurea]
43	10	O=C(Nc1ccncc1)Nc1ccc(-c2nc(N3CCOCC3)c3nnn(C4CCOCC4)c3n2)cc1 [Example 198, 1-{4-[7-morpholin-4-yl-3-(tetrahydro-2H-pyran-4-yl)-3H-[1,2,3]triazolo[4,5-d]pyrimidin-5-yl]phenyl}-3-pyridin-4-ylurea]
176	48	CN(C)CCNC(=O)Nc1ccc(-c2nc(N3CCOCC3)c3nnn(C4CCN(Cc5ccc(Br)nc5)CC4)c3n2)cc1 [Example 155, 1-(4-(3-(1-((6-bromopyridin-3-yl)methyl)piperidin-4-yl)-7-morpholino-3H-[1,2,3]triazolo[4,5-d]pyrimidin-5-yl)phenyl)-3-(2-(dimethylamino)ethyl)urea]
1020	154	Oc1cccc(-c2nc(N3CCOCC3)c3nnn(CCN4CCN(Cc5ccc[nH]5)CC4)c3n2)c1 [Example 112, 3-(7-morpholin-4-yl-3-{2-[4-(1H-pyrrol-2-ylmethyl)piperazin-1-yl]ethyl}-3H-[1,2,3]triazolo[4,5-d]pyrimidin-5-yl)phenol]
11.5	< 1.9	CCn1nnc2c(N3CCOCC3)nc(-c3ccc(NC(=O)Nc4ccc(C(=O)N(C)CCNC)cc4)cc3)nc21 [Example 52, 4-({[4-(3-ethyl-7-morpholin-4-yl-3H-[1,2,3]triazolo[4,5-d]pyrimidin-5-yl)phenyl]carbamoyl}amino)-N-methyl-N-[2-(methylamino)ethyl]benzamide]
1670	447	CC(C)(C)OC(=O)NC1CCN(C(=O)c2ccc(Cn3nnc4c(N5CCOCC5)nc(-c5cccc(O)c5)nc43)cc2)CC1 [Example 209, tert-butyl [1-(4-{[5-(3-hydroxyphenyl)-7-morpholin-4-yl-3H-[1,2,3]triazolo[4,5-d]pyrimidin-3-yl]methyl}benzoyl)piperidin-4-yl]carbamate]
